According to patent US8106031B2, “Hydrolytically-resistant boron-containing therapeutics and methods of use” (Anacor Pharmaceuticals, Inc., priority 2006, dated 2012):
In brackets after ≈: the same amount, converted by molar mass. Where two headings read alike, the source gives them in different places.

Experiments:
[1] = test system: Trichophyton rubrum; assay: MIC against T. rubrum (NCCLS broth dilution); type: cell-based; details: for MIC: Trichophyton rubrum, read-out: Minimum inhibitory concentration, T. rubrum
From the text: (§1) To determine the antifungal activity of these compounds we screened for their minimum inhibitory concentrations (MIC) against the major dermatophytes that cause onychomycosis, T. rubrum and T. mentagrophytes, and against the yeasts and molds C. albicans, C. neoformans and A. fumigatus to test for their broad spectrum activity. The antifungal agent ciclopirox, currently in use for the topical treatment of onychomycosis, was used as a reference.
(§2) All MIC testing against Trichophyton rubrum, Trichophyton mentagrophytes, Candida albicans, Cryptococcus neoformans and Aspergillus fumigatus were determined following the National Committee for Clinical Laboratory Standards (NCCLS) guidelines for antimicrobial testing of yeasts and filamentous fungi.^i,ii
(§3) Two-fold serial dilutions of the test compounds were prepared in 96-well plates. […] Pfaller M A, Chaturvedi V, Espinel-Ingroff A, Ghannoum M A, Gosey L L, Odds F C, Rex J H, Rinaldi M G, Sheehan D J, Walsh T J, Warnock D W. NCCLS publication M27-A2—Reference Method for Broth Dilution Antifungal Susceptibility Testing of Yeasts; Approved Standard—Second Edition. […] Pfaller M A, Chaturvedi V, Espinel-Ingroff A, Ghannoum M A, Gosey L L, Odds F C, Rex J H, Rinaldi M G, Sheehan D J, Walsh T J, Warnock D W. NCCLS publication M38-A—Reference Method for Broth Dilution Antifungal Susceptibility Testing of Filamentous Fungi; Approved Standard.

[2] = test system: Candida albicans; assay: MIC against C. albicans (NCCLS broth dilution); type: cell-based; details: for MIC: Candida albicans, read-out: Minimum inhibitory concentration, C. albicans
From the text: as §1, §2, §3

[3] = test system: Cryptococcus neoformans; assay: MIC against C. neoformans (NCCLS broth dilution); type: cell-based; details: for MIC: Cryptococcus neoformans, read-out: Minimum inhibitory concentration, C. neoformans
From the text: as §1, §2, §3

[4] = test system: Aspergillus fumigatus; assay: MIC against A. fumigatus (NCCLS broth dilution); type: cell-based; details: for MIC: Aspergillus fumigatus, read-out: Minimum inhibitory concentration, A. fumigatus
From the text: as §1, §2, §3

[5] = test system: Trichophyton mentagrophytes; assay: MIC against T. mentagrophytes (NCCLS broth dilution); type: cell-based; details: for MIC: Trichophyton mentagrophytes, read-out: Minimum inhibitory concentration, T. mentagrophytes
From the text: as §1, §2, §3

[6] = Table 1, over 90% reduction of growth, 24-168 h at 35° C.

In the case of `OB1OCc2cccc(F)c21` [19n, 1,3-Dihydro-7-fluoro-1-hydroxy-2,1-benzoxaborolane], the MIC ([1]; Table 3, 1-hydroxy series (19)) was 16 µg/mL (≈ 105 µM), the MIC ([2]; Table 3, 1-hydroxy series (19)) was 32 µg/mL (≈ 211 µM) and the MIC ([3]; Table 3, 1-hydroxy series (19)) was 32 µg/mL (≈ 211 µM). For the same compound, the MIC ([4]; Table 3, 1-hydroxy series (19)) was 4 µg/mL (≈ 26.3 µM) and the MIC ([5]; Table 3, 1-hydroxy series (19)) was 16 µg/mL (≈ 105 µM).
`Cc1ccc(B2OCc3cc(F)ccc32)cc1` [9j, 1,3-Dihydro-5-fluoro-1-(4-methylphenyl)-2,1-benzoxaborole] showed an MIC ([1]; Table 2, 1-phenyl series (9)) of 2 µg/mL (≈ 8.85 µM), an MIC ([2]; Table 2, 1-phenyl series (9)) of 0.5 µg/mL (≈ 2.21 µM) and an MIC ([3]; Table 2, 1-phenyl series (9)) of 0.5 µg/mL (≈ 2.21 µM). The MIC ([4]; Table 2, 1-phenyl series (9)) was 0.5 µg/mL (≈ 2.21 µM), the MIC ([5]; Table 2, 1-phenyl series (9)) was 2 µg/mL (≈ 8.85 µM) and the melting point was 48 to 49 °C.
For `C(=Cc1ccccc1)B1OCc2ccccc21` [10a, 1,3-Dihydro-1-styryl-2,1-benzoxaborole], the MIC [1, 6] was 8 µg/mL (≈ 36.4 µM), the MIC [2, 6] was 2 µg/mL (≈ 9.09 µM) and the MIC [3, 6] was 4 µg/mL (≈ 18.2 µM). For the same compound, the MIC [4, 6] was 4 µg/mL (≈ 18.2 µM), the MIC [5, 6] was 8 µg/mL (≈ 36.4 µM) and the melting point was 57 to 59 °C.
`Cc1ccc2c(c1)COB2O` [19e, 1,3-Dihydro-1-hydroxy-5-methyl-2,1-benzoxaborole] showed an MIC ([1]; Table 3, 1-hydroxy series (19)) of 8 µg/mL (≈ 54.1 µM), an MIC ([2]; Table 3, 1-hydroxy series (19)) of 2 µg/mL (≈ 13.5 µM) and an MIC ([3]; Table 3, 1-hydroxy series (19)) of 8 µg/mL (≈ 54.1 µM). The MIC ([4]; Table 3, 1-hydroxy series (19)) was 2 µg/mL (≈ 13.5 µM) and the MIC ([5]; Table 3, 1-hydroxy series (19)) was 4 µg/mL (≈ 27 µM).
With “1,3-Dihydro-1-hydroxy-5-trifluoromethoxy-benzoxaborole [19i]” the “Minimum inhibitory concentration, T. rubrum” value ([1]; Table 3, 1-hydroxy series (19)) was 64 µg/mL, the “Minimum inhibitory concentration, C. albicans” value ([2]; Table 3, 1-hydroxy series (19)) was >64 µg/mL and the “Minimum inhibitory concentration, C. neoformans” value ([3]; Table 3, 1-hydroxy series (19)) was >64 µg/mL. The “Minimum inhibitory concentration, A. fumigatus” value ([4]; Table 3, 1-hydroxy series (19)) was >64 µg/mL and the “Minimum inhibitory concentration, T. mentagrophytes” value ([5]; Table 3, 1-hydroxy series (19)) was 64 µg/mL.
With `Fc1cccc(B2OCc3cc(F)ccc32)c1` [9g, 1,3-Dihydro-5-fluoro-1-(3-fluorophenyl)-2,1-benzoxaborole] the MIC ([1]; Table 2, 1-phenyl series (9)) was 1 µg/mL (≈ 4.35 µM), the MIC ([2]; Table 2, 1-phenyl series (9)) was 0.5 µg/mL (≈ 2.17 µM) and the MIC ([3]; Table 2, 1-phenyl series (9)) was 1 µg/mL (≈ 4.35 µM). It also gave an MIC ([4]; Table 2, 1-phenyl series (9)) of 1 µg/mL (≈ 4.35 µM), an MIC ([5]; Table 2, 1-phenyl series (9)) of 2 µg/mL (≈ 8.69 µM) and a melting point of 80 to 82 °C.
`Fc1ccc2c(c1)COB2c1cccc(Cl)c1` [9f, 1-(3-Chlorophenyl)-1,3-dihydro-5-fluoro-2,1-benzoxaborole] gave an MIC ([1]; Table 2, 1-phenyl series (9)) of 4 µg/mL (≈ 16.2 µM), an MIC ([2]; Table 2, 1-phenyl series (9)) of 0.25 µg/mL (≈ 1.01 µM) and an MIC ([3]; Table 2, 1-phenyl series (9)) of 0.5 µg/mL (≈ 2.03 µM). It also gave an MIC ([4]; Table 2, 1-phenyl series (9)) of 2 µg/mL (≈ 8.11 µM), an MIC ([5]; Table 2, 1-phenyl series (9)) of 8 µg/mL (≈ 32.5 µM) and a melting point of 112 to 114 °C.
With `Fc1ccc2c(c1)COB2c1ccoc1` [compound 12, 1,3-Dihydro-5-fluoro-1-(furan-3-yl)-2,1-benzoxaborole] the MIC [1, 6] was 4 µg/mL (≈ 19.8 µM), the MIC [2, 6] was 4 µg/mL (≈ 19.8 µM) and the MIC [3, 6] was 4 µg/mL (≈ 19.8 µM). The MIC [4, 6] was 4 µg/mL (≈ 19.8 µM) and the MIC [5, 6] was 4 µg/mL (≈ 19.8 µM).
For “1,3-Dihydro-1-hydroxy-2,1-naphtho[2,1-d]oxaborole [19j]”, the “Minimum inhibitory concentration, T. rubrum” value ([1]; Table 3, 1-hydroxy series (19)) was 4 µg/mL, the “Minimum inhibitory concentration, C. albicans” value ([2]; Table 3, 1-hydroxy series (19)) was 32 µg/mL and the “Minimum inhibitory concentration, C. neoformans” value ([3]; Table 3, 1-hydroxy series (19)) was 32 µg/mL. For the same compound, the “Minimum inhibitory concentration, A. fumigatus” value ([4]; Table 3, 1-hydroxy series (19)) was 32 µg/mL and the “Minimum inhibitory concentration, T. mentagrophytes” value ([5]; Table 3, 1-hydroxy series (19)) was 2 µg/mL.
For `OB1OCc2cc(Cl)ccc21` [19d, 5-Chloro-1,3-dihydro-1-hydroxy-2,1-benzoxaborole], the MIC ([1]; Table 3, 1-hydroxy series (19)) was 1 µg/mL (≈ 5.94 µM), the MIC ([2]; Table 3, 1-hydroxy series (19)) was 1 µg/mL (≈ 5.94 µM) and the MIC ([3]; Table 3, 1-hydroxy series (19)) was 2 µg/mL (≈ 11.9 µM). For the same compound, the MIC ([4]; Table 3, 1-hydroxy series (19)) was 1 µg/mL (≈ 5.94 µM) and the MIC ([5]; Table 3, 1-hydroxy series (19)) was 2 µg/mL (≈ 11.9 µM).
With `OB1OCc2c(F)cccc21` [19l, 1,3-Dihydro-4-fluoro-1-hydroxy-2,1-benzoxaborole] the MIC ([1]; Table 3, 1-hydroxy series (19)) was 16 µg/mL (≈ 105 µM), the MIC ([2]; Table 3, 1-hydroxy series (19)) was 64 µg/mL (≈ 421 µM) and the MIC ([3]; Table 3, 1-hydroxy series (19)) was 32 µg/mL (≈ 211 µM). It also gave an MIC ([4]; Table 3, 1-hydroxy series (19)) of 32 µg/mL (≈ 211 µM) and an MIC ([5]; Table 3, 1-hydroxy series (19)) of 16 µg/mL (≈ 105 µM).
`Fc1ccc2c(c1)COB2c1ccsc1` [compound 13, 1,3-Dihydro-5-fluoro-1-(thiophen-3-yl)-2,1-benzoxaborole] gave an MIC [1, 6] of 1 µg/mL (≈ 4.59 µM), an MIC [2, 6] of 1 µg/mL (≈ 4.59 µM) and an MIC [3, 6] of 1 µg/mL (≈ 4.59 µM). For the same compound, the MIC [4, 6] was 1 µg/mL (≈ 4.59 µM), the MIC [5, 6] was 4 µg/mL (≈ 18.3 µM) and the melting point was 33 to 35 °C.
`Cc1cccc(B2OCc3cc(F)ccc32)c1` [9i, 1,3-Dihydro-5-fluoro-1-(3-methylphenyl)-2,1-benzoxaborole] gave an MIC ([1]; Table 2, 1-phenyl series (9)) of 2 µg/mL (≈ 8.85 µM), an MIC ([2]; Table 2, 1-phenyl series (9)) of 1 µg/mL (≈ 4.42 µM) and an MIC ([3]; Table 2, 1-phenyl series (9)) of 0.5 µg/mL (≈ 2.21 µM). For the same compound, the MIC ([4]; Table 2, 1-phenyl series (9)) was 0.5 µg/mL (≈ 2.21 µM), the MIC ([5]; Table 2, 1-phenyl series (9)) was 4 µg/mL (≈ 17.7 µM) and the melting point was 48 to 49 °C.
